Data taken from US7799792B2, “Metabotropic glutamate receptor oxadiazole ligands and their use as potentiators 841” (AstraZeneca AB, priority 2007, dated 2010).
pEC50: −log10 of the molar value. In brackets after ≈: the same amount, converted by molar mass.

Legend:
[1] = target: T1, human mGluR2 receptor (Homo sapiens, UniProt Q14416); test: [35S]-GTPγS binding assay of mGluR2 receptor activation (allosteric activator activity); format: biochemical; conditions: membranes from CHO cells stably expressing human mGluR2; 1 μM glutamate; read-out: GTPgS EC50
T1 construct: expressed in transfected cells; host or cells: CHO cells, stably transfected; membranes
Protocol: A [^35S]-GTPγS binding assay was used to functionally assay mGluR2 receptor activation. The allosteric activator activity of compounds at the human mGluR2 receptor were measured using a [^35S]-GTPγS binding assay with membranes prepared from CHO cells which stably express the human mGluR2. The assay is based upon the principle that agonists bind to G-protein coupled receptors to stimulate GDP-GTP exchange at the G-protein. Since [^35S]-GTPγS is a non-hydrolyzable GTP analog, it can be used to provide an index of GDP-GTP exchange and, thus, receptor activation. The GTPγS binding assay therefore provides a quantitative measure of receptor activation.
Membranes were prepared from CHO cells stably transfected with human mGluR2. Membranes (30 μg protein) were incubated with test compound (3 nM to 300 μM) for 15 minutes at room temperature prior to the addition of 1 μM glutamate, and incubated for 30 min at 30° C. in 500 μl assay buffer (20 mM HEPES, 100 mM NaCl, 10 mM MgCl2), containing 30 μM GDP and 0.1 nM [^35S]-GTPγS (1250 Ci/mmol). Reactions were carried out in triplicate in 2 ml polypropylene 96-well plates. Reactions were terminated by vacuum filtration using a Packard 96-well harvester and Unifilter-96, GF/B filter microplates. The filter plates were washed 4×1.5 ml with ice-cold wash buffer (10 mM sodium phosphate buffer, pH 7.4). The filter plates were dried and 35 μl of scintillation fluid (Microscint 20) was added to each well. The amount of radioactivity bound was determined by counting plates on the Packard TopCount. Data was analyzed using GraphPad Prism, and EC50 and Emax values (relative to the maximum glutamate effect) were calculated using non-linear regression.

[2] = Aqueous solubility in pH 7.4 phosphate buffer; format: physicochemical; conditions: thermodynamic from solid, equilibration 24 h at 25° C., read-out: Aq. solubility
Protocol: Solubility was determined in pH 7.4 phosphate buffer after equilibration for 24 h at 25° C. and HPLC-UV and LC-MSMS were used for quantitation.

T1 sequence (Q14416 19-872): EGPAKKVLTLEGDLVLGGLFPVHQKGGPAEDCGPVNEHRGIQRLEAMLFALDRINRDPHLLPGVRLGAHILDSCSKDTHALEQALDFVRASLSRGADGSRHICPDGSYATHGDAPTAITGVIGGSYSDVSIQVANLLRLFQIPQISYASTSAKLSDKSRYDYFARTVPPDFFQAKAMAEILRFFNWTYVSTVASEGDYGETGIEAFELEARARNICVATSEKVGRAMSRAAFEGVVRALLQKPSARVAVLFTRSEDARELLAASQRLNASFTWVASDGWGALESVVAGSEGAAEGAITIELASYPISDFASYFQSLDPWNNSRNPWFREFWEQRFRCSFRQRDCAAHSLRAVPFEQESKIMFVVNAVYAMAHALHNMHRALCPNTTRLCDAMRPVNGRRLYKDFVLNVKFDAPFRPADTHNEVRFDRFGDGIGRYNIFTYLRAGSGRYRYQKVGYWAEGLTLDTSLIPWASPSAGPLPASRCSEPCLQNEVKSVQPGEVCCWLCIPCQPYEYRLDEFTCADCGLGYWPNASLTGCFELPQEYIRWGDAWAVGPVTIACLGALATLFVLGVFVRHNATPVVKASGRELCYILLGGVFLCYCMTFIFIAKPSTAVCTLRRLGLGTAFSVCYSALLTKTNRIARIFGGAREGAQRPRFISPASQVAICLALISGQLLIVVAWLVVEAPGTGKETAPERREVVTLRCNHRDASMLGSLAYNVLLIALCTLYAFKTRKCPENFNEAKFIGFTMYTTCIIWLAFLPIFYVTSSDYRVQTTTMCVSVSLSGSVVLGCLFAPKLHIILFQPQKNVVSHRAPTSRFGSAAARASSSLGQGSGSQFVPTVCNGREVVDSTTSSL

Cc1cc(-c2noc(CN3C[C@@H]4C[C@H]3CN4)n2)cc2c1C(=O)N([C@@H](C)c1ccc(Cl)cc1)C2 [Example 7, 2-[(S)-1-(4-Chloro-phenyl)-ethyl]-5-{5-[(1S,4S)-1-(2,5-diaza-bicyclo[2.2.1]hept-2-yl)methyl]-[1,2,4]oxadiazol-3-yl}-7-methyl-2,3-dihydro-isoindol-1-one]
pEC50 [1]: 6.45
solubility at 24 h [2]: 158 µM (≈ 73.3 µg/mL)

Cc1cc(-c2noc(CN3CCNCC3)n2)cc2c1C(=O)N([C@@H](C)c1ccc(Cl)cc1)C2 [Example 6, 2-[(S)-1-(4-Chloro-phenyl)-ethyl]-7-methyl-5-(5-piperazin-1-ylmethyl-[1,2,4]oxadiazol-3-yl)-2,3-dihydro-isoindol-1-one]
pEC50 [1]: 7.32
solubility at 24 h [2]: 96 µM (≈ 43.4 µg/mL)

O=C1c2c(Cl)cc(-c3noc(CN4CCNCC4)n3)cc2CN1Cc1ccc(Cl)cc1 [Example 2, 7-chloro-2-(4-chlorobenzyl)-5-(5-piperazin-1-ylmethyl-[1,2,4]oxadiazol-3-yl)-2,3-dihydroisoindol-1-one]
pEC50 [1]: 6.37
solubility at 24 h [2]: 176 µM (≈ 80.7 µg/mL)

Cc1cc(-c2noc(C(C)N3CCNCC3)n2)cc2c1C(=O)N(Cc1ccc(OC(F)(F)F)cc1)C2 (stereo not shown) [Example 12, 7-Methyl-5-[5-(1-piperazin-1-yl-ethyl)-[1,2,4]oxadiazol-3-yl]-2-(4-trifluoromethoxy-benzyl)-2,3-dihydro-isoindol-1-one]
pEC50 [1]: 6.51
solubility at 24 h [2]: 182 µM (≈ 91.3 µg/mL)

Cc1cc(-c2noc(CN3C[C@@H]4C[C@H]3CN4)n2)cc2c1C(=O)N(Cc1ccc(OC(F)(F)F)cc1)C2 [Example 5, 5-[5-(2,5-diaza-bicyclo[2.2.1]hept-2-ylmethyl)-[1,2,4]oxadiazol-3-yl]-7-methyl-2-(4-trifluoromethoxybenzyl)-2,3-dihydroisoindol-1-one]
pEC50 [1]: 7.12
solubility at 24 h [2]: 141 µM (≈ 70.4 µg/mL)

Cc1cc(-c2noc(C(C)N3CCNCC3)n2)cc2c1C(=O)N(Cc1ccc(Cl)cc1)C2 (stereo not shown) [Example 13, 2-(4-Chloro-benzyl)-7-methyl-5-[5-(1-piperazin-1-yl-ethyl)-[1,2,4]oxadiazol-3-yl]-2,3-dihydro-isoindol-1-one]
pEC50 [1]: 6.55
solubility at 24 h [2]: 240 µM (≈ 108 µg/mL)

Cc1cc(-c2noc(CN3CCNC[C@H]3C)n2)cc2c1C(=O)N(Cc1ccc(Cl)cc1)C2 [Example 8, 2-(4-chloro-benzyl)-7-methyl-5-[5-(2-methyl-piperazin-1-ylmethyl)-[1,2,4]oxadiazol-3-yl]-2,3-dihydroisoindol-1-one]
pEC50 [1]: 6.69
solubility at 24 h [2]: 228 µM (≈ 103 µg/mL)

Cc1cc(-c2noc(CN3CCNCC3)n2)cc2c1C(=O)N(Cc1ccc(Cl)cc1)C2 [Example 4, 2-(4-chlorobenzyl)-7-methyl-5-(5-piperazin-1-ylmethyl-[1,2,4]oxadiazol-3-yl)-2,3-dihydroisoindol-1-one]
pEC50 [1]: 6.50
solubility at 24 h [2]: 166 µM (≈ 72.7 µg/mL)

CC1(C)CN(Cc2nc(-c3cc(Cl)c4c(c3)CN(Cc3ccc(OC(F)(F)F)cc3)C4=O)no2)CCN1 [Example 11, 7-chloro-5-[5-(3,3-dimethyl-piperazin-1-ylmethyl)-[1,2,4]oxadiazol-3-yl]-2-(4-trifluoro-methoxybenzyl)-2,3-dihydroisoindol-1-one]
pEC50 [1]: 6.83
solubility at 24 h [2]: 230 µM (≈ 123 µg/mL)

Cc1cc(-c2noc(CN3CCNCC3)n2)cc2c1C(=O)N(Cc1ccc(OC(F)(F)F)cc1)C2 [Example 3, 7-methyl-5-(5-piperazin-1-ylmethyl-[1,2,4]oxadiazol-3-yl)-2-(4-trifluoro-methoxybenzyl)-2,3-dihydroisoindol-1-one]
pEC50 [1]: 6.83
solubility at 24 h [2]: 111 µM (≈ 54.1 µg/mL)

Cc1cc(-c2noc(C(C)N3CCNCC3)n2)cc2c1C(=O)N([C@@H](C)c1ccc(Cl)cc1)C2 (stereo partly drawn) [Example 14, 2-[(S)-1-(4-Chloro-phenyl)-ethyl]-7-methyl-5-[5-(1-piperazin-1-yl-ethyl)-[1,2,4]oxadiazol-3-yl]-2,3-dihydro-isoindol-1-one]
pEC50 [1]: 6.68
solubility at 24 h [2]: 271 µM (≈ 126 µg/mL)

Cc1cc(-c2noc(CN3CCNC[C@@H]3C)n2)cc2c1C(=O)N(Cc1ccc(Cl)cc1)C2 [Example 9, 2-(4-chloro-benzyl)-7-methyl-5-[5-(2-methyl-piperazin-1-ylmethyl)-[1,2,4]oxadiazol-3-yl]-2,3-dihydroisoindol-1-one]
pEC50 [1]: 6.49
solubility at 24 h [2]: 158 µM (≈ 71.4 µg/mL)

Cc1cc(-c2noc(CN3CCNC(C)C3)n2)cc2c1C(=O)N(Cc1ccc(Cl)cc1)C2 (stereo not shown) [Example 10, 2-(4-chloro-benzyl)-7-methyl-5-[5-(3-methyl-piperazin-1-ylmethyl)-[1,2,4]oxadiazol-3-yl]-2,3-dihydroisoindol-1-one]
pEC50 [1]: 6.92
solubility at 24 h [2]: 148 µM (≈ 66.9 µg/mL)

O=C1c2c(Cl)cc(-c3noc(CN4CCNCC4)n3)cc2CN1Cc1ccc(OC(F)(F)F)cc1 [Example 1, 7-Chloro-5-(5-piperazin-1-ylmethyl-[1,2,4]oxadiazol-3-yl)-2-(4-trifluoromethoxybenzyl)-2,3-dihydroisoindol-1-one]
pEC50 [1]: 6.65
solubility at 24 h [2]: 139 µM (≈ 70.6 µg/mL)
